Experimental data published in patent US20090253622A1, “USE OF TLR3 AGONISTS FOR THE TREATMENT OF NEURODEGENERATIVE DISORDERS” (Nederlandse Organisatie voor toegepast - …, priority 2006, published 2009).

Tests used:
[1] = system: TLR3; test: TLR expression in cultured adult human astrocytes by real-time PCR; type: cell-based
Method: Adult human astrocytes from post-mortem subcortical white matter samples were isolated and cultured as previously described (Bsibsi et al., J Neuropath Exp Neurol 61:1013-1021 [2002]). As determined by specific staining for cellular markers for astrocytes (glial fibrillary acidic protein; GFAP) and microglia (CD68) astrocyte cultures were essentially homogeneous; as a rule all cells expressed GFAP and none of them expressed CD68. When indicated astrocytes were stimulated with 50 μg/mL poly I:C (Amersham Pharmacia Biotech, Piscataway, N.J.) or 200 ng/mL LPS (Sigma-Aldrich, Steinheim, Germany) to activate TLR3 and TLR4, respectively. These doses were selected on the basis of maximum effects in astrocytes. It should be noted that contaminants in the commercial LPS preparation could possibly lead to some level of TLR2 activation in addition to TLR4 by the LPS preparation used but not of TLR3. When stimulated with cytokines, astrocytes were supplied with TNF-α, IFN-γ, IL-1β (each at 500 U/mL), IL-4 (at 250 U/mL), IL-6 (at 200 U/mL), IL-12 (at 50 ng/mL), IL-10 (at 20 ng/mL) and TGF-β (at 12.5 ng/mL) (PeproTech, Rocky Hill, N.Y.). Control cDNA array profiling experiments included treatment with 50 μg/mL cycloheximide for 30 min prior to and during poly I:C treatment, or with 200 U/mL IFNβ (Avonex). Endothelial cells (UVEC) were isolated from umbillical cords and cultured on gelatin-coated dishes in M199 supplemented with 20 nM HEPES, 10% human serum, 10% heat-inactivated NBCS, 150 mg/mL ECGF, 5 U/mL heparin, 100 IU/mL penicillin and […] streptomycin. Total cellular RNA was isolated using RNA-Bee™ as previously described (Bsibsi et al., [2002] supra). Subsequently, RNA was reverse transcribed into cDNA and levels of TLR1-10 and β-actin as a reference were determined by quantitative real-time PCR. The following fluorogenic molecular beacons and primers (Biolegio, Nijmegen, The Netherlands) were used: The β-actin beacon contained 5′ fluorescein VIC, and the 3′ quencher Dabcyl. […] Data were analyzed using sequence detector version 1.7 software.

[2] = target: human Toll-like receptor 3 (human) (UniProt O15455); test: cell-based or functional assay
[3] = system: neurons in organotypic human brain slice cultures; test: Neuronal survival in organotypic human brain slice cultures (calcein-AM / ethidium homodimer-1); type: cell-based; conditions: slices cultured 1 week; p<0.03
Method: Organotypic human brain slice cultures were set up and analyzed as previously described (Verwer et al., FASEB J. 16:54-60 [2002]). Briefly, tissue blocks were collected from different post-mortem cortical samples and 200-μm slices were produced. These slices were cultured for 1 week in Poly I:C- or LPS-conditioned astrocyte media that were obtained upon culturing astrocytes in the presence of either 50 μg/mL poly I:C or 200 ng/mL LPS. As a control untreated astrocyte-conditioned media from the same donor was used. All astrocyte-conditioned media were harvested after 48 h and stored at −20° C. Viability of neurons in the slice cultures was evaluated using calcein-AM and ethidium homodimer-1 (molecular Probes, Eugene, Oreg.). A Zeiss 410 Invert confocal laser scanning microscope was used to inspect the slices and quantify staining.

[4] = system: TLR3; test: CXCL8 release by cultured human astrocytes (ELISA); type: cell-based
Method: Cos-7 cells (25,000 cells per well in 96-well plates) were transfected for 5 h with 768 pools of cDNA derived from human brain tumours (5 pooled tumours including meningioma, oligodendroglioma, astrocytoma grades II and IV, and medulloblastoma; NCI CGAP Brn35; Invitrogen) using lipofectamine, after which cells were thoroughly washed. Transfection with green-fluorescent protein-encoding cDNA was used as an internal control for transfection efficiencies. After continued culture of the transfected cells for 48 h, 75 μL of each culture supernatant was harvested and added to cultured human astrocytes seeded at 1,000 cells per well in 75 μL. After 48 h of culture, supernatants were harvested and evaluated for CXCL8 release using ELISA. Stimulation of astrocytes with poly I:C served as positive controls for CXCL8 release in all cases, non-transfected Cos 7 culture supernatants as negative controls.
(§1) Purified recombinant stathmin was exposed to two different conditions that differentially affect the extent of helix formation within the protein chain. One part of the protein preparation was exposed to 5% trifluoroacetic acid (TFA) in water for 1 h at 37° C., strongly acidic conditions that tend to disrupt an alpha helix. In parallel, another part was exposed for 1 h at 37° C. to 5% of the helix-promoting solvent trifluoroethanol (TFE) in phosphate-buffered saline (PBS). After exposure to these different conditions, both protein samples were extensively dialysed for 48 h against several changes of PBS. Next, the samples were analyzed by […] circular dichroism spectroscopy that allows calculation of helical content on the basis of elipticity in the absorption of circularly polarized light. In both cases, another part of the dialyzed sample was tested in parallel for induction of TLR3-mediated release of CXCL8 (IL-8) in human astrocytes as described elsewhere in this application.

[5] = system: experimental autoimmune encephalomyelitis; conditions: mice treated 5, 7 and 9 days after induction of the disease; cited from earlier work
[6] = system: TLR3; test: IL-6 release by astrocytes from wild-type mice (ELISA); type: cell-based; conditions: wild-type mouse astrocytes, 48 h
Method: (§2) Astrocytes were cultured in poly L-lysine coated 96 well-flat-bottom plates at 1×10^4 cells per well in 100 l DMEM/HAM-F10 medium containing 10% FCS and antibiotic supplements for 24 h to obtain post-confluent cultures. Recombinant human stathmin was next added to astrocytes, and parallel control stimuli were performed with either poly I:C, an established TLR3 agonist, or ultrapure lipopolysaccharides, established TLR4 agonists. After addition of these stimuli astrocytes were incubated for another 48 h. Astrocyte culture supernatants were subsequently collected and using a commercial ELISA kit levels of IL-6 were determined, as a marker for TLR-mediated activation of murine astrocytes.

[7] = system: human adult astrocytes; test: cDNA array profiling of cytokine, chemokine and growth factor genes in human adult astrocytes; type: cell-based
Method: Adult human astrocytes from post-mortem subcortical white matter samples were isolated and cultured as previously described (Bsibsi et al., J Neuropath Exp Neurol 61:1013-1021 [2002]). […] When indicated astrocytes were stimulated with 50 μg/mL poly I:C (Amersham Pharmacia Biotech, Piscataway, N.J.) or 200 ng/mL LPS (Sigma-Aldrich, Steinheim, Germany) to activate TLR3 and TLR4, respectively. […] It should be noted that contaminants in the commercial LPS preparation could possibly lead to some level of TLR2 activation in addition to TLR4 by the LPS preparation used but not of TLR3. When stimulated with cytokines, astrocytes were supplied with TNF-α, IFN-γ, IL-1β (each at 500 U/mL), IL-4 (at 250 U/mL), IL-6 (at 200 U/mL), IL-12 (at 50 ng/mL), IL-10 (at 20 ng/mL) and TGF-β (at 12.5 ng/mL) (PeproTech, Rocky Hill, N.Y.). […] Endothelial cells (UVEC) were isolated from umbillical cords and cultured on gelatin-coated dishes in M199 supplemented with 20 nM HEPES, 10% human serum, 10% heat-inactivated NBCS, 150 mg/mL ECGF, 5 U/mL heparin, 100 IU/mL penicillin and […] streptomycin.
Analysis of the mRNA profile of astrocytes was performed by hybrid selection of ^32P-labeled cDNA on Clontech human cytokine/chemokine Atlas® arrays as previous described (Meeuwsen et al., Glia 43:243-253 [2003]). Hybridization signals for each of the 268 cytokine, chemokine and growth factor (receptor) genes were calculated as the mean of duplicate measurements, corrected for background intensity and quantified using software provided by the manufacturer. Relative expression was calculated by dividing these hybridization signals by the mean signal for all nine housekeeping reference genes on the corresponding array.
Gene profiling was performed using astrocytes from four different control donors.
Astrocytes were isolated from post mortem human brain tissue samples and cultured under conditions as described elsewhere in this application. One part of the culture was stimulated with 50 μg/ml stathmin, the second with 50 μg/ml poly I:C and a third was left untreated to served as a reference control. Following another 48 h RNA was isolated from each culture and ^32P-labeled cDNA was prepared by reverse transcription. Subsequent hybrid selection of these ^32P-labeled cDNA samples was performed on Clontech Atlas® arrays containing selective probes for 268 cytokines, chemokines and growth factors, and various receptors for these mediators. All hybridization signals were calculated as the mean of duplicate measurements, corrected for background intensity and quantified using software provided by the manufacturer. Relative signal strength was next calculated by dividing these averaged hybridization signals by the mean signal for all nine housekeeping reference genes that were also present on each array as a reference.

[8] = system: astrocytes from TLR3-deficient mice; test: IL-6 release by astrocytes from TLR3-deficient mice (ELISA); type: cell-based; conditions: TLR3-deficient mouse astrocytes, 48 h
Method: as §2

[9] = Circular dichroism spectroscopy, helical content; type: physicochemical; conditions: pre-treated 1 h at 37° C., dialysed 48 h against PBS
Method: as §1, with “[…] […]” for “In parallel, another part was exposed for 1 h at 37° C. to 5% of the helix-promoting solvent trifluoroethanol (TFE) in phosphate-buffered saline (PBS). After exposure to these different conditions, both protein samples were extensively dialysed for 48 h against several changes of PBS.”

[10] = agonist-treated vs untreated astrocytes, 48 h

Q: For “TGF-β: anti-inflammatory cytokine, 12.5 ng/mL”, which “induction of TLR3 expression (in words)” value [1] is on record?
A: Its value is “No induction of TLR3”.

Q: What does the source list for “recombinant human stathmin (from UniProt P16949 1-149) (ligand)”?
A: Pearson correlation coefficient (r) between gene expression profiles (268 genes) of human astrocytes stimulated with 50 µg/ml stathmin or 50 µg/ml poly I:C [2]: 0.951; TLR3-mediated release of CXCL8 (IL-8) in human astrocytes: TFE-treated stathmin (37% alpha helix) against TFA-treated stathmin (12% alpha helix) [2]: 3 fold

Q: For `OO` [H2O2], which “induction of TLR3 expression (in words)” value [1] is on record?
A: The value was “selective induction of TLR3”.

Q: For poly I:C, which survival of neurons [3] is on record?
A: The survival of neurons was “promoted neuronal survival equally well”.

Q: And the “release levels of CXCL8” value ([4]; human adult astrocyte cultures)?
A: Its value is “around 200 ng/mL”.

Q: And the “disease development in EAE” value [5]?
A: Its value is “almost completely blocks subsequent disease development”.

Q: And the IL-6 release [6]?
A: Its IL-6 release is “marked IL-6 release”.

Q: What about the “change in expression of genes encoding immune mediators and growth factors” value ([7]; 50 μg/ml, 48 h) of the same molecule?
A: The value was “comprehensive and marked change in expression”.

Q: What about the “Jag1, downregulation factor” value ([7]; 48 h) of the same molecule?
A: The value was 1.96.

Q: What about the “p40 subunit of IL-12 and IL-23, down-regulation factor” value ([7]; 48 h) of the same molecule?
A: Its value is roughly 2.

Q: And the “ERBB4 receptor protein-tyrosine kinase, ratio of expression” value [7, 10]?
A: Its value is 0.43.

Q: And the “Smo, ratio of expression” value [7, 10]?
A: The value was 0.48.

Q: What about the “VEGF receptor 2, ratio of expression” value [7, 10] of the same molecule?
A: The value was 0.22.

Q: What about the “induction of chemokines CXCL8, CXCL2 and CCL3” value ([7]; astrocytes) of the same molecule?
A: Its value is “strongly induced”.

Q: What about the “induction of IL-9” value ([7]; astrocytes, 48 h) of the same molecule?
A: Its value is 7.5 fold.

Q: What about the “induction of IL-10” value ([7]; astrocytes, 48 h) of the same molecule?
A: The value was 2.3 fold.

Q: What about the “induction of IL-11” value ([7]; astrocytes, 48 h) of the same molecule?
A: Its value is 3.2 fold.

Q: And the “induction of TNF-α” value ([7]; astrocytes, 48 h)?
A: The value was “induced”.

Q: What about the “induction of tumour necrosis factor-stimulated gene 6 (TSG-6)” value ([7]; astrocytes, 48 h) of the same molecule?
A: The value was “over 10 fold”.

Q: And the “induction of CCL4, CXCL6, CCL5, CXCL9 and CCL2” value ([7]; astrocytes, to a lesser extent)?
A: Its value is “leads to induction”.

Q: What about the IL-6 release [8] of the same molecule?
A: Its IL-6 release is “fully abrogated”.

B1: TFA-treated sample: purified recombinant stathmin exposed to 5% TFA in water for 1 h at 37° C. and dialysed against PBS (protein, UniProt P16949 2-149, looked up)
Stathmin: ASSDIQVKELEKRASGQAFELILSPRSKESVPEFPLSPPKKKDLSLEEIQKKLEAAEERRKSHEAEVLKQLAEKREHEKEVLQKAIEENNNFSKMAEEKLTHKMEANKENREAQMAAKLERLREKDKHIEEVRKNKESKDPADETEAD
modifications: TFA-treated
notes: purified recombinant stathmin exposed to 5% TFA in water for 1 h at 37° C. and dialysed against PBS
Q: For B1, which alpha helical content [9] is on record?
A: The alpha helical content was 12%.

B2: TFE-treated sample: purified recombinant stathmin exposed to 5% TFE in PBS for 1 h at 37° C. and dialysed against PBS (protein, UniProt P16949 2-149, looked up)
Stathmin: B1 Stathmin
modifications: TFE-treated
notes: purified recombinant stathmin exposed to 5% TFE in PBS for 1 h at 37° C. and dialysed against PBS
Q: Which “activity in activating astrocytes (CXCL8/IL-8 release), TFE-treated relative to TFA-treated sample” value ([4]; on weight basis) does the source give for B2 here?
A: Its value is “about 3 fold”.

Q: And the alpha helical content [9]?
A: The alpha helical content was 37%.

B3: IL-10: anti-inflammatory cytokine, 20 ng/mL (protein, UniProt P22301 19-178, looked up)
Interleukin-10: SPGQGTQSENSCTHFPGNLPNMLRDLRDAFSRVKTFFQMKDQLDNLLLKESLLEDFKGYLGCQALSEMIQFYLEEVMPQAENQDPDIKAHVNSLGENLKTLRLRLRRCHRFLPCENKSKAVEQVKNAFNKLQEKGIYKAMSEFDIFINYIEAYMTMKIRN
Q: Which “induction of TLR3 expression (in words)” value [1] does the source give for B3 here?
A: Its value is “No induction of TLR3”.
